Data: patent US20210402016A1, “RADIOLABELED BOMBESIN-DERIVED COMPOUNDS FOR IN VIVO IMAGING OF GASTRIN-RELEASING PEPTIDE RECEPTOR (GRPR) AND TREATMENT OF GRPR-RELATED DISORDERS” (Provincial Health Services Authority, priority 2018, published 2021)
Where two headings read alike, the source gives them in different places.

Assays:
[1] = tested on: PC-3 xenograft bearing mice; assay: Biodistribution in PC-3 tumor-bearing NSG mice (Example 2); assay type: in vivo
Method: (§1) […]. The mice were sacrificed by CO2 inhalation at 1 h, and 2 h p.i. Blood was collected by cardiac puncture. Organs/tissues were harvested, rinsed with PBS, blotted dry, and weighed. The activity in tissues was assayed by gamma counter and expressed as the percentage injected dose per gram of tissue (% ID/g).

[2] = as above; assay type: in vivo; settings: male, NSG (NOD.Cg-Prkdc^scid Il2rg^tm1Wjl/SzJ), mouse, iv, total radioactivity; for tissue uptake at 2 h / tissue to tissue ratio at 2 h: 120 MIN p.i.
Method: as §1

[3] = measured at 5 min and 15 min p.i., mice, radio-HPLC
Excerpt: ^68Ga-ProBOMB2 (5.9±0.3 MBq) was intravenously injected into four male NSG mice. After a 5-min and 15-min uptake period, two mice were sedated/euthanized at each timepoint, and blood was collected. The plasma was extracted from whole blood with acetonitrile, vortexed, and the supernatant separated.

[4] = tested on: PC-3 xenograft bearing mice; settings: PET/CT, PC-3 tumor-bearing mice
Method: Animal experiments were approved by the Animal Ethics Committee of the University of British Columbia.
Mice were sedated and scanned (Siemens Inveon microPET/CT) with body temperature maintained by heating pad. […] PET data were acquired in list mode, reconstructed using 3-dimensional ordered-subsets expectation maximization (2 iterations) followed by a fast maximum a priori algorithm (18 iterations) with CT-based attenuation correction. Images were analyzed using the Inveon Research Workplace software (Siemens Healthineers).

## CC(C)C[C@@H](CN1CCC[C@H]1C(N)=O)NC(=O)[C@H](Cc1c[nH]cn1)NC(=O)CNC(=O)[C@@H](NC(=O)[C@H](C)NC(=O)[C@H](Cc1c[nH]c2ccccc12)NC(=O)[C@H](CCC(N)=O)NC(=O)[C@@H](Cc1ccccc1)NC(=O)CN1CCC(NC(=O)CN2CCN(CC(=O)O)CCN(CC(=O)O)CCN(CC(=O)O)CC2)CC1)C(C)C [^68Ga-ProBOMB2, metal not drawn]
[1]; 60 MIN BLOCKED, co-injection of 100 μg of [D-Phe^6,Leu-NHEt^13,des-Met^14]Bombesin(6-14)
  TUMOR-TO-BLOOD ratio, Mean: 7.23
[1]; PC-3 tumors, 60 min p.i., 100 μg blocker
  Decrease of average uptake in tumors by co-injection of [D-Phe^6, Leu-NHEt^13, des-Met^14]Bombesin(6-14): 65%
[2]; PC-3 tumor, 60 MIN BLOCKED, co-injection of 100 μg of [D-Phe^6,Leu-NHEt^13,des-Met^14]Bombesin(6-14), read-out: Biodistribution PC3 TUMOR, Mean
  tissue uptake at 1 h: 3.77 %ID/g
[2]; PC-3 tumor, 60 MIN p.i., read-out: Biodistribution PC3 TUMOR, Mean
  tissue uptake at 1 h: 10.8 %ID/g
[2]; PC-3 tumor, read-out: Biodistribution PC3 TUMOR, Mean
  tissue uptake at 2 h: 8.79 %ID/g
[2]; adrenal glands, 60 MIN BLOCKED, co-injection of 100 μg of [D-Phe^6,Leu-NHEt^13,des-Met^14]Bombesin(6-14), read-out: Biodistribution ADRENAL GLANDS, Mean
  tissue uptake at 1 h: 0.32 %ID/g
[2]; adrenal glands, 60 MIN p.i., read-out: Biodistribution ADRENAL GLANDS, Mean
  tissue uptake at 1 h: 0.76 %ID/g
[2]; adrenal glands, read-out: Biodistribution ADRENAL GLANDS, Mean
  tissue uptake at 2 h: 0.47 %ID/g
[2]; bone, 60 MIN BLOCKED, co-injection of 100 μg of [D-Phe^6,Leu-NHEt^13,des-Met^14]Bombesin(6-14), read-out: Biodistribution BONE, Mean
  tissue uptake at 1 h: 0.13 %ID/g
[2]; bone, 60 MIN p.i., read-out: Biodistribution BONE, Mean
  tissue uptake at 1 h: 0.15 %ID/g
[2]; bone, read-out: Biodistribution BONE, Mean
  tissue uptake at 2 h: 0.06 %ID/g
[2]; brain, 60 MIN BLOCKED, co-injection of 100 μg of [D-Phe^6,Leu-NHEt^13,des-Met^14]Bombesin(6-14), read-out: Biodistribution BRAIN, Mean
  tissue uptake at 1 h: 0.02 %ID/g
[2]; brain, 60 MIN p.i., read-out: Biodistribution BRAIN, Mean
  tissue uptake at 1 h: 0.02 %ID/g
[2]; brain, read-out: Biodistribution BRAIN, Mean
  tissue uptake at 2 h: 0.01 %ID/g
[2]; fat, 60 MIN BLOCKED, co-injection of 100 μg of [D-Phe^6,Leu-NHEt^13,des-Met^14]Bombesin(6-14), read-out: Biodistribution FAT, Mean
  tissue uptake at 1 h: 0.08 %ID/g
[2]; fat, 60 MIN p.i., read-out: Biodistribution FAT, Mean
  tissue uptake at 1 h: 0.06 %ID/g
[2]; fat, read-out: Biodistribution FAT, Mean
  tissue uptake at 2 h: 0.02 %ID/g
[2]; heart, 60 MIN BLOCKED, co-injection of 100 μg of [D-Phe^6,Leu-NHEt^13,des-Met^14]Bombesin(6-14), read-out: Biodistribution HEART, Mean
  tissue uptake at 1 h: 0.16 %ID/g
[2]; heart, 60 MIN p.i., read-out: Biodistribution HEART, Mean
  tissue uptake at 1 h: 0.18 %ID/g
[2]; heart, read-out: Biodistribution HEART, Mean
  tissue uptake at 2 h: 0.05 %ID/g
[2]; intestine, 60 MIN BLOCKED, co-injection of 100 μg of [D-Phe^6,Leu-NHEt^13,des-Met^14]Bombesin(6-14), read-out: Biodistribution INTESTINE, Mean
  tissue uptake at 1 h: 0.34 %ID/g
[2]; intestine, 60 MIN p.i., read-out: Biodistribution INTESTINE, Mean
  tissue uptake at 1 h: 0.46 %ID/g
[2]; intestine, read-out: Biodistribution INTESTINE, Mean
  tissue uptake at 2 h: 0.19 %ID/g
[2]; kidney, 60 MIN BLOCKED, co-injection of 100 μg of [D-Phe^6,Leu-NHEt^13,des-Met^14]Bombesin(6-14), read-out: Biodistribution KIDNEY, Mean
  tissue uptake at 1 h: 2.22 %ID/g
[2]; kidney, 60 MIN p.i., read-out: Biodistribution KIDNEY, Mean
  tissue uptake at 1 h: 1.81 %ID/g
[2]; kidney, read-out: Biodistribution KIDNEY, Mean
  tissue uptake at 2 h: 1.27 %ID/g
[2]; liver, 60 MIN BLOCKED, co-injection of 100 μg of [D-Phe^6,Leu-NHEt^13,des-Met^14]Bombesin(6-14), read-out: Biodistribution LIVER, Mean
  tissue uptake at 1 h: 0.57 %ID/g
[2]; liver, 60 MIN p.i., read-out: Biodistribution LIVER, Mean
  tissue uptake at 1 h: 0.43 %ID/g
[2]; liver, read-out: Biodistribution LIVER, Mean
  tissue uptake at 2 h: 0.29 %ID/g
[2]; lungs, 60 MIN BLOCKED, co-injection of 100 μg of [D-Phe^6,Leu-NHEt^13,des-Met^14]Bombesin(6-14), read-out: Biodistribution LUNGS, Mean
  tissue uptake at 1 h: 0.41 %ID/g
[2]; lungs, 60 MIN p.i., read-out: Biodistribution LUNGS, Mean
  tissue uptake at 1 h: 0.39 %ID/g
[2]; lungs, read-out: Biodistribution LUNGS, Mean
  tissue uptake at 2 h: 0.13 %ID/g
[2]; muscle, 60 MIN BLOCKED, co-injection of 100 μg of [D-Phe^6,Leu-NHEt^13,des-Met^14]Bombesin(6-14), read-out: Biodistribution MUSCLE, Mean
  tissue uptake at 1 h: 0.09 %ID/g
[2]; muscle, 60 MIN p.i., read-out: Biodistribution MUSCLE, Mean
  tissue uptake at 1 h: 0.15 %ID/g
[2]; muscle, read-out: Biodistribution MUSCLE, Mean
  tissue uptake at 2 h: 0.03 %ID/g
[2]; pancreas, Biodistribution PANCREAS, Mean, 60 MIN BLOCKED, co-injection of 100 μg of [D-Phe^6,Leu-NHEt^13,des-Met^14]Bombesin(6-14), read-out: Biodistribution […], Mean
  tissue uptake at 1 h: 0.62 %ID/g
[2]; pancreas, Biodistribution PANCREAS, Mean, 60 MIN p.i., read-out: Biodistribution […], Mean
  tissue uptake at 1 h: 1.2 %ID/g
[2]; pancreas, Biodistribution PANCREAS, Mean, read-out: Biodistribution […], Mean
  tissue uptake at 2 h: 0.3 %ID/g
[2]; seminal, 60 MIN BLOCKED, co-injection of 100 μg of [D-Phe^6,Leu-NHEt^13,des-Met^14]Bombesin(6-14), read-out: Biodistribution SEMINAL, Mean
  tissue uptake at 1 h: 1.95 %ID/g
[2]; seminal, 60 MIN p.i., read-out: Biodistribution SEMINAL, Mean
  tissue uptake at 1 h: 2.44 %ID/g
[2]; seminal, read-out: Biodistribution SEMINAL, Mean
  tissue uptake at 2 h: 1.63 %ID/g
[2]; spleen, 60 MIN BLOCKED, co-injection of 100 μg of [D-Phe^6,Leu-NHEt^13,des-Met^14]Bombesin(6-14), read-out: Biodistribution SPLEEN, Mean
  tissue uptake at 1 h: 0.33 %ID/g
[2]; spleen, 60 MIN p.i., read-out: Biodistribution SPLEEN, Mean
  tissue uptake at 1 h: 0.27 %ID/g
[2]; spleen, read-out: Biodistribution SPLEEN, Mean
  tissue uptake at 2 h: 0.11 %ID/g
[2]; stomach, 60 MIN BLOCKED, co-injection of 100 μg of [D-Phe^6,Leu-NHEt^13,des-Met^14]Bombesin(6-14), read-out: Biodistribution STOMACH, Mean
  tissue uptake at 1 h: 0.07 %ID/g
[2]; stomach, 60 MIN p.i., read-out: Biodistribution STOMACH, Mean
  tissue uptake at 1 h: 0.19 %ID/g
[2]; stomach, read-out: Biodistribution STOMACH, Mean
  tissue uptake at 2 h: 0.06 %ID/g
[2]; testes, 60 MIN BLOCKED, co-injection of 100 μg of [D-Phe^6,Leu-NHEt^13,des-Met^14]Bombesin(6-14), read-out: Biodistribution TESTES, Mean
  tissue uptake at 1 h: 0.21 %ID/g
[2]; testes, 60 MIN p.i., read-out: Biodistribution TESTES, Mean
  tissue uptake at 1 h: 0.16 %ID/g
[2]; testes, read-out: Biodistribution TESTES, Mean
  tissue uptake at 2 h: 0.07 %ID/g
[2]; tumor/blood, 60 MIN p.i., read-out: TUMOR-TO-BLOOD ratio, Mean
  tissue to tissue ratio at 1 h: 22.2
[2]; tumor/blood, read-out: TUMOR-TO-BLOOD ratio, Mean
  tissue to tissue ratio at 2 h: 75.3
[2]; tumor/bone, 60 MIN BLOCKED, co-injection of 100 μg of [D-Phe^6,Leu-NHEt^13,des-Met^14]Bombesin(6-14), read-out: TUMOR-TO-BONE ratio, Mean
  tissue to tissue ratio at 1 h: 39.8
[2]; tumor/bone, 60 MIN p.i., read-out: TUMOR-TO-BONE ratio, Mean
  tissue to tissue ratio at 1 h: 89.9
[2]; tumor/bone, read-out: TUMOR-TO-BONE ratio, Mean
  tissue to tissue ratio at 2 h: 173
[2]; tumor/kidney, 60 MIN BLOCKED, co-injection of 100 μg of [D-Phe^6,Leu-NHEt^13,des-Met^14]Bombesin(6-14), read-out: TUMOR-TO-KIDNEY ratio, Mean
  tissue to tissue ratio at 1 h: 1.77
[2]; tumor/kidney, 60 MIN p.i., read-out: TUMOR-TO-KIDNEY ratio, Mean
  tissue to tissue ratio at 1 h: 6.03
[2]; tumor/kidney, read-out: TUMOR-TO-KIDNEY ratio, Mean
  tissue to tissue ratio at 2 h: 6.96
[2]; tumor/liver, 60 MIN BLOCKED, co-injection of 100 μg of [D-Phe^6,Leu-NHEt^13,des-Met^14]Bombesin(6-14), read-out: TUMOR-TO-LIVER ratio, Mean
  tissue to tissue ratio at 1 h: 7.33
[2]; tumor/liver, 60 MIN p.i., read-out: TUMOR-TO-LIVER ratio, Mean
  tissue to tissue ratio at 1 h: 26.2
[2]; tumor/liver, read-out: TUMOR-TO-LIVER ratio, Mean
  tissue to tissue ratio at 2 h: 35
[2]; tumor/muscle, 60 MIN BLOCKED, co-injection of 100 μg of [D-Phe^6,Leu-NHEt^13,des-Met^14]Bombesin(6-14), read-out: TUMOR-TO-MUSCLE ratio, Mean
  tissue to tissue ratio at 1 h: 44
[2]; tumor/muscle, 60 MIN p.i., read-out: TUMOR-TO-MUSCLE ratio, Mean
  tissue to tissue ratio at 1 h: 102
[2]; tumor/muscle, read-out: TUMOR-TO-MUSCLE ratio, Mean
  tissue to tissue ratio at 2 h: 411
[2]; tumor/pancreas, TUMOR-TO-PANCREAS ratio, Mean, 60 MIN BLOCKED, co-injection of 100 μg of [D-Phe^6,Leu-NHEt^13,des-Met^14]Bombesin(6-14), read-out: TUMOR-TO-[…] ratio, Mean
  tissue to tissue ratio at 1 h: 6.17
[2]; tumor/pancreas, TUMOR-TO-PANCREAS ratio, Mean, 60 MIN p.i., read-out: TUMOR-TO-[…] ratio, Mean
  tissue to tissue ratio at 1 h: 9.32
[2]; tumor/pancreas, TUMOR-TO-PANCREAS ratio, Mean, read-out: TUMOR-TO-[…] ratio, Mean
  tissue to tissue ratio at 2 h: 31.1
[2]; whole blood, 60 MIN BLOCKED, co-injection of 100 μg of [D-Phe^6,Leu-NHEt^13,des-Met^14]Bombesin(6-14), read-out: Biodistribution BLOOD, Mean
  tissue uptake at 1 h: 0.53 %ID/g
[2]; whole blood, 60 MIN p.i., read-out: Biodistribution BLOOD, Mean
  tissue uptake at 1 h: 0.49 %ID/g
[2]; whole blood, read-out: Biodistribution BLOOD, Mean
  tissue uptake at 2 h: 0.13 %ID/g
[3]
  Intact in plasma: 89%
[4]
  Clearance pathway: primarily cleared through the renal pathway
